According to ChEMBL document CHEMBL3751851, “Antileukemic activity of lignans and phenylpropanoids of Cinnamomum parthenoxylon” (Bioorg Med Chem Lett, 2016):
Activity calls are given as the source filed them. The rule behind the calls is not given here.

Columns and labels:
[1] = Cytotoxicity against human HL60 cells after 48 hrs by CCK8 assay; format: functional, cell-based; settings: HL-60, 48 h
[2] = Cytotoxicity against human U937 cells after 48 hrs by CCK8 assay; format: functional, cell-based; settings: U-937, 48 h
HL-60 = assay: Induction of apoptotic morphological changes in human HL60 cells at 50 uM after 48 hrs by Hoechst 33342 staining; format: functional, cell-based
U-937 = assay: Induction of apoptotic morphological changes in human U937 cells at 50 uM after 48 hrs by Hoechst 33342 staining; format: functional, cell-based
Huh-7 = assay: Induction of apoptosis in human HuH7 cells assessed as increase of casapase-3 activity after 1 hr by DEVD-pNA cleavage assay relative to control; format: functional

Row | Structure (SMILES) | IC50 [1] [µM] | IC50 [2] [µM] | Activity (HL-60) | Activity (U-937) | fold change (FC) (Huh-7)
1 | OC1OC[C@H](Cc2ccc3c(c2)OCO3)[C@H]1Cc1ccc2c(c1)OCO2 (stereo partly specified) | 38.2 | 15.7 | Active | Active | –
2 | c1cc2c(cc1C[C@H]1COC[C@@H]1Cc1ccc3c(c1)OCO3)OCO2 | 51.1 | 40.2 | – | Active | –
3 | O=C1OC[C@H](Cc2ccc3c(c2)OCO3)[C@H]1Cc1ccc2c(c1)OCO2 [HINOKININ] | 31.3 | 10.4 | Active | Active | 2
4 | C=CCc1ccc2c(c1)OCO2 [SAFROLE] | 53.2 | 52.3 | – | – | –
5 | OCC(O)Cc1ccc2c(c1)OCO2 (stereo unspecified) [SAFROLGLYCOL] | 60 | 50.8 | – | – | –
